Measured values from patent US20260325533A1, “CDK INHIBITOR COMPOUNDS” (ALEKSIA THERAPEUTICS, INC., priority 2023, published 2026).
Like-named read-outs stand apart in the source and are kept apart here.

Legend:
Assay type in all cases: biochemical
[1] = biological target: CDK2/CCNE1 (Homo sapiens, UniProt P24941); assay: CDK2 homogeneous time-resolved fluorescence (HTRF) kinase assay; conditions: CDK2/CCNE
Procedure, shortened: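 Compounds were titrated 11-point, half-log from typically 10 μM against 3 nM CDK2/cyclin E1 at 1 mM ATP, with a 20 min enzyme preincubation. Phosphorylation of 50 nM ULight-4E-BP1 peptide over 60 min at 23 °C was detected by europium anti-phospho antibody TR-FRET.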

[2] = biological target: CDK1/CCNB1 (Homo sapiens, UniProt P06493); assay: CDK1 homogeneous time-resolved fluorescence (HTRF) kinase assay; conditions: CDK1/CCNB
Procedure, shortened: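 0.5 nM CDK1/CCNB1 was preincubated 20 min at 23 °C with compound in HEPES pH-unspecified buffer (MgCl2, EGTA, DTT, Tween 20), then reacted 60 min with 1 mM ATP and 50 nM ULight-4E-BP1 (Thr37/46) peptide. EDTA-stopped reactions were detected with 2 nM Eu-anti-phospho antibody; IC50 from 11-point half-log titrations.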

[3] = biological target: CDK4/CCND3 (Homo sapiens, UniProt P11802); assay: CDK4 homogeneous time-resolved fluorescence (HTRF) kinase assay; conditions: CDK4/CCND
Procedure, shortened: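 Steps: compound plus 1.5 nM CDK4/CCND3, 20 min, 23 °C; add 1 mM ATP and 50 nM ULight-4E-BP1 (Thr37/46) peptide, 60 min; stop with 10 mM EDTA; add 2 nM Eu anti-phospho antibody, 60 min; read 665 nm. IC50 from 11-point half-log series starting 10 μM.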

[4] = biological target: CDK6/CCND1 (Homo sapiens, UniProt Q00534); assay: CDK6 homogeneous time-resolved fluorescence (HTRF) kinase assay; conditions: CDK6/CCND
Procedure, shortened: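 Enzyme pre-incubated 20 min at 23 °C with compound, then reacted 60 min at 23 °C with 1 mM ATP and 50 nM ULight-4E-BP1 (Thr37/46) peptide; 1 nM enzyme, 1% DMSO. EDTA-stopped, Eu-anti-phospho antibody TR-FRET read (665 nm or 665/615 ratio); 11-point half-log titration from 10 μM gave IC50.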

[5] = <25 nM, read-out: CDK2/CCNE IC50, <25 nM
[6] = >250 nM, read-out: CDK1/CCNB IC50 >250 nM
[7] = >250 nM, read-out: CDK4/CCND IC50, >250 nM
[8] = >250 nM, 1 mM ATP, read-out: CDK6/CCND IC50, >250 nM
[9] = >250 nM marked x, read-out: CDK1/CCNB IC50 >250 nM
[10] = >250 nM marked x, read-out: CDK4/CCND IC50 >250 nM
[11] = >250 nM marked x, read-out: CDK6/CCND IC50 >250 nM
[12] = x = IC50 <25 nM, read-out: CDK2/CCNE IC50 (<25 nM)
[13] = x = IC50 >250 nM, read-out: CDK1/CCNB IC50 (>250 nM column)
[14] = x = IC50 >250 nM, read-out: CDK4/CCND IC50 (>250 nM column)
[15] = x = IC50 >250 nM, read-out: CDK6/CCND IC50 (>250 nM column)
[16] = x = IC50 25-250 nM, read-out: CDK1/CCNB IC50 (25-250 nM)
[17] = x = IC50 25-250 nM, read-out: CDK4/CCND IC50 (25-250 nM)
[18] = 25-250 nM, read-out: CDK2/CCNE IC50, 25-250 nM
[19] = x = IC50 25-250 nM, read-out: CDK6/CCND IC50 (25-250 nM)
[20] = x = IC50 25-250 nM, read-out: CDK2/CCNE IC50 (25-250 nM)

CDK1/CCNB1, sequence (P06493 whole entry): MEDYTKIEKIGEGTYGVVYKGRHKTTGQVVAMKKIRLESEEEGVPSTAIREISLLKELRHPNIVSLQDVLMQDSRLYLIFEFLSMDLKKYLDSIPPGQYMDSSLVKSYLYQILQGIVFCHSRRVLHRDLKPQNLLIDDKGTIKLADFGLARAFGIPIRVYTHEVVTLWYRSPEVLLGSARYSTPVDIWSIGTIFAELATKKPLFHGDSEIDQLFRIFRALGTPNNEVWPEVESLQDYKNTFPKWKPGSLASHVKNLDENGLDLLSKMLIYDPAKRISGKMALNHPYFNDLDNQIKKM
CDK1/CCNB1, sequence (P14635 whole entry partner): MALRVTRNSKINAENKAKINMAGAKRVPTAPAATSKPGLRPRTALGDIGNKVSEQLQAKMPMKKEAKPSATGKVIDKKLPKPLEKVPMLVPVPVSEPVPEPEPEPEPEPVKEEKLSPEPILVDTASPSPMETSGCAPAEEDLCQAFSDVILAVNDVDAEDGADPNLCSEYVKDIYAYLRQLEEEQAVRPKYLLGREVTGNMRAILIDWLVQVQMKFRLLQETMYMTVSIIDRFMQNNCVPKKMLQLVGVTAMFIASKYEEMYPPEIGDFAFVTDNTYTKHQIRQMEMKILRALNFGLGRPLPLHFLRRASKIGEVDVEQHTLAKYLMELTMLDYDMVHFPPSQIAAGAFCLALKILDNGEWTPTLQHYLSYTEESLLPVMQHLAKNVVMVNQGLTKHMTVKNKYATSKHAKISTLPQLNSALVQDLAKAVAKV
CDK6/CCND1, sequence (Q00534 whole entry): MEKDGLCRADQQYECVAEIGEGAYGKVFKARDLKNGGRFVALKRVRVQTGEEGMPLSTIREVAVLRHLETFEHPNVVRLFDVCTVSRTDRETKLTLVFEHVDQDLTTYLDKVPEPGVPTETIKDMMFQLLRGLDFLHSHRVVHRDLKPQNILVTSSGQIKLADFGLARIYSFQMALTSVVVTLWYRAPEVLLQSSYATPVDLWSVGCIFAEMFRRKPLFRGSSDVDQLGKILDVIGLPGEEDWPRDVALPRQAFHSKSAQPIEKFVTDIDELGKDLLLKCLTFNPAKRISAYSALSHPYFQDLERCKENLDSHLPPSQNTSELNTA
CDK6/CCND1, sequence (P24385 whole entry partner): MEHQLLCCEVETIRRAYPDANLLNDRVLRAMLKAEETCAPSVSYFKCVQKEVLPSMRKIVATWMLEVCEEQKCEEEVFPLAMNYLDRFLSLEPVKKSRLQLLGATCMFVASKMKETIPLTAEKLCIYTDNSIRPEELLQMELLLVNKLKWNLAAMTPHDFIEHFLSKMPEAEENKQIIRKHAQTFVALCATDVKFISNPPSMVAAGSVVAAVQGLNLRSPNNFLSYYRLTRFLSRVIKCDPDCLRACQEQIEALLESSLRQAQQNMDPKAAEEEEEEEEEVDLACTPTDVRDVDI
CDK4/CCND3, sequence (P11802 whole entry): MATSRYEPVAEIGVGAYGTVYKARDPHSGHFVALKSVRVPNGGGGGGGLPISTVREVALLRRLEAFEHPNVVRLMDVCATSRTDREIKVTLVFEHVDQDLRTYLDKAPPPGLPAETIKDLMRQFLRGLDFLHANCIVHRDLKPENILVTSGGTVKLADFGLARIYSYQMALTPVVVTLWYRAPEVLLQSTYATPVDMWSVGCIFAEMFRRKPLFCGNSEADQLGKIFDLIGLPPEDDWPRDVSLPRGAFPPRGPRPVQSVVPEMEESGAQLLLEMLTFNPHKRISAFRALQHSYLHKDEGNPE
CDK4/CCND3, sequence (P30281 whole entry partner): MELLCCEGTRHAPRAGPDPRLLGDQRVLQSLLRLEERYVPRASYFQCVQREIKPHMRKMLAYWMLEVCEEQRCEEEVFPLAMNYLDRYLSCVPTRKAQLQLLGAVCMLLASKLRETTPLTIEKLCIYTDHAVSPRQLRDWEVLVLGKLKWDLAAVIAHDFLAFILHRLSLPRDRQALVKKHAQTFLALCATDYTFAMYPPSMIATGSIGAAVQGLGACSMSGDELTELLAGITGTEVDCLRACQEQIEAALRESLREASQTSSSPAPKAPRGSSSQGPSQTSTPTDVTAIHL

Cc1c(-c2nccc3cnc(Nc4ccc(NS(=O)(=O)c5cccc(N6CCN(C)CC6)c5)cc4)cc23)ccc2c1cnn2CC(C)(C)O [Ex 751, N-(4-((5-(1-(2-hydroxy-2-methylpropyl)-4-methyl-1H-indazol-5-yl)-2,6-naphthyridin-3-yl)amino)phenyl)-3-(4-methylpiperazin-1-yl)benzenesulfonamide]
IC50 [1, 5]: < 25 nM
IC50 [2, 6]: > 250 nM
IC50 [3, 7]: > 250 nM
IC50 [4, 8]: > 250 nM

CS(=O)(=O)c1ccc(Nc2cc3c(N4CC5(CN(c6ccc(C#N)cc6)C5)C4)nccc3cn2)cc1 [Ex 248, 4-(6-(7-((4-(methylsulfonyl)phenyl)amino)-2,6-naphthyridin-1-yl)-2,6-diazaspiro[3.3]heptan-2-yl)benzonitrile]
IC50 ([1]; >250 nM marked x, read-out: CDK2/CCNE IC50 >250 nM): > 250 nM
IC50 [2, 9]: > 250 nM
IC50 [3, 10]: > 250 nM
IC50 [4, 11]: > 250 nM

CS(=O)(=O)c1ccc(Nc2cc3c(C#Cc4ccc5oc(=O)[nH]c5c4)nccc3cn2)cc1 [Ex 518, 5-((7-((4-(methylsulfonyl)phenyl)amino)-2,6-naphthyridin-1-yl)ethynyl)benzo[d]oxazol-2(3H)-one]
IC50 [1, 12]: < 25 nM
IC50 [2, 13]: > 250 nM
IC50 [3, 14]: > 250 nM
IC50 [4, 15]: > 250 nM

CC1(C)C(=O)Nc2cc(C#Cc3nccc4cnc(Nc5ccc(S(C)(=O)=O)cc5)cc34)ccc21 [Ex 486, 3,3-dimethyl-6-((7-((4-(methylsulfonyl)phenyl)amino)-2,6-naphthyridin-1-yl)ethynyl)indolin-2-one]
IC50 [1, 12]: < 25 nM
IC50 [2, 16]: 25 to 250 nM
IC50 [3, 17]: 25 to 250 nM
IC50 [4, 15]: > 250 nM

CS(=O)(=O)c1ccc(Nc2cc3c(C#Cc4ccc(C#N)cc4C(F)(F)F)nccc3cn2)cc1 [Ex 647, 4-((7-((4-(methylsulfonyl)phenyl)amino)-2,6-naphthyridin-1-yl)ethynyl)-3-(trifluoromethyl)benzonitrile]
IC50 [1, 12]: < 25 nM
IC50 [2, 13]: > 250 nM
IC50 [3, 14]: > 250 nM
IC50 [4, 15]: > 250 nM

CC(C)NS(=O)(=O)c1ccc(Nc2cc3c(C#Cc4cccnc4N)nccc3cn2)cc1 [Example 421, 4-((5-((2-aminopyridin-3-yl)ethynyl)-2,6-naphthyridin-3-yl)amino)-N-isopropylbenzenesulfonamide]
IC50 [1, 12]: < 25 nM
IC50 [2, 13]: > 250 nM
IC50 [3, 14]: > 250 nM
IC50 [4, 15]: > 250 nM

Cc1ccc(C#Cc2nccc3cnc(Nc4ccc(S(C)(=O)=O)cc4)cc23)c(N)c1 [Ex 570, 5-((2-amino-4-methylphenyl)ethynyl)-N-(4-(methylsulfonyl)phenyl)-2,6-naphthyridin-3-amine]
IC50 [1, 12]: < 25 nM
IC50 [2, 13]: > 250 nM
IC50 [3, 14]: > 250 nM
IC50 [4, 15]: > 250 nM

CS(=O)(=O)c1ccc(Nc2cc3c(C#Cc4ccc(CCC(=O)O)cc4)nccc3cn2)cc1 [Example 494, 3-(4-((7-((4-(methylsulfonyl)phenyl)amino)-2,6-naphthyridin-1-yl)ethynyl)phenyl)propanoic acid]
IC50 [1, 12]: < 25 nM
IC50 [2, 13]: > 250 nM
IC50 [3, 14]: > 250 nM
IC50 [4, 15]: > 250 nM

CC(C)S(=O)(=O)c1ccc(Nc2cc3c(C#Cc4ccc5c(c4)NC(=O)C54CCC4)nccc3cn2)cc1 [Ex 386, 6'-((7-((4-(isopropylsulfonyl)phenyl)amino)-2,6-naphthyridin-1-yl)ethynyl)spiro[cyclobutane-1,3'-indolin]-2'-one]
IC50 [1, 12]: < 25 nM
IC50 [2, 13]: > 250 nM
IC50 [3, 14]: > 250 nM
IC50 [4, 15]: > 250 nM

Cc1cc(C)nc(NS(=O)(=O)c2ccc(Nc3cc4c(C#Cc5ccc(C#N)cc5)nccc4cn3)cc2)n1 [Ex 936, 4-((5-((4-cyanophenyl)ethynyl)-2,6-naphthyridin-3-yl)amino)-N-(4,6-dimethylpyrimidin-2-yl)benzenesulfonamide]
IC50 [1, 5]: < 25 nM
IC50 [2, 6]: > 250 nM
IC50 [3, 7]: > 250 nM
IC50 [4, 8]: > 250 nM

Cc1c(-c2nccc3cnc(Nc4ccc(NS(C)(=O)=O)cc4)cc23)ccc2c1cnn2CC(C)(C)O [Ex 938, N-(4-((5-(1-(2-hydroxy-2-methylpropyl)-4-methyl-1H-indazol-5-yl)-2,6-naphthyridin-3-yl)amino)phenyl)methanesulfonamide]
IC50 [1, 5]: < 25 nM
IC50 ([2]; 25-250 nM, read-out: CDK1/CCNB IC50, 25-250 nM): 25 to 250 nM
IC50 ([3]; 25-250 nM, read-out: CDK4/CCND IC50, 25-250 nM): 25 to 250 nM
IC50 ([4]; 25-250 nM, 1 mM ATP, read-out: CDK6/CCND IC50, 25-250 nM): 25 to 250 nM

COc1cccc(NS(=O)(=O)c2ccc(Nc3cc4c(-c5ccc6c(cnn6CC(O)(C(F)(F)F)C(F)(F)F)c5C)nccc4cn3)cc2)n1 [Ex 735, N-(6-methoxypyridin-2-yl)-4-((5-(4-methyl-1-(3,3,3-trifluoro-2-hydroxy-2-(trifluoromethyl)propyl)-1H-indazol-5-yl)-2,6-naphthyridin-3-yl)amino)benzenesulfonamide]
IC50 [1, 18]: 25 to 250 nM
IC50 [2, 6]: > 250 nM
IC50 [3, 7]: > 250 nM
IC50 [4, 8]: > 250 nM

COCC1(COC)C(=O)Nc2cc(C#Cc3nccc4cnc(Nc5ccc(S(C)(=O)=O)cc5)cc34)ccc21 [Example 360, 3,3-bis(methoxymethyl)-6-((7-((4-(methylsulfonyl)phenyl)amino)-2,6-naphthyridin-1-yl)ethynyl)indolin-2-one]
IC50 [1, 12]: < 25 nM
IC50 [2, 16]: 25 to 250 nM
IC50 [3, 14]: > 250 nM
IC50 [4, 15]: > 250 nM

Cc1c(-c2nccc3cnc(Nc4ccc(S(C)(=O)=O)cc4)cc23)ccc2c1cnn2CC(N)=O [Ex 676, 2-(4-methyl-5-(7-((4-(methylsulfonyl)phenyl)amino)-2,6-naphthyridin-1-yl)-1H-indazol-1-yl)acetamide]
IC50 [1, 12]: < 25 nM
IC50 [2, 16]: 25 to 250 nM
IC50 [3, 17]: 25 to 250 nM
IC50 [4, 19]: 25 to 250 nM

C[C@@H](C#Cc1nccc2cnc(Nc3ccc(S(C)(=O)=O)cc3)cc12)CO [Example 488, (S)-2-methyl-4-(7-((4-(methylsulfonyl)phenyl)amino)-2,6-naphthyridin-1-yl)but-3-yn-1-ol]
IC50 [1, 12]: < 25 nM
IC50 [2, 13]: > 250 nM
IC50 [3, 17]: 25 to 250 nM
IC50 [4, 19]: 25 to 250 nM

Cc1c(-c2nccc3cnc(Nc4ccc(S(C)(=O)=O)c(N5CCN(C)CC5)c4)cc23)ccc2c1cnn2CC(C)(C)O [Ex 931, 2-methyl-1-(4-methyl-5-(7-((3-(4-methylpiperazin-1-yl)-4-(methylsulfonyl)phenyl)amino)-2,6-naphthyridin-1-yl)-1H-indazol-1-yl)propan-2-ol]
IC50 [1, 18]: 25 to 250 nM
IC50 [2, 6]: > 250 nM
IC50 [3, 7]: > 250 nM
IC50 [4, 8]: > 250 nM

CS(=O)(=O)c1ccc(Nc2cc3c(C4CCN(Cc5ccc(Cl)cc5)C4)nccc3cn2)cc1 (racemic) [Ex 233, 5-(1-(4-chlorobenzyl)pyrrolidin-3-yl)-N-(4-(methylsulfonyl)phenyl)-2,6-naphthyridin-3-amine]
IC50 ([1]; 25-250 nM marked x, read-out: CDK2/CCNE IC50 25-250 nM): 25 to 250 nM
IC50 [2, 9]: > 250 nM
IC50 [3, 10]: > 250 nM
IC50 [4, 11]: > 250 nM

CS(=O)(=O)c1ccc(Nc2cc3c(C#Cc4cncnc4N)nccc3cn2)cc1 [Ex 492, 5-((4-aminopyrimidin-5-yl)ethynyl)-N-(4-(methylsulfonyl)phenyl)-2,6-naphthyridin-3-amine]
IC50 [1, 20]: 25 to 250 nM
IC50 [2, 13]: > 250 nM
IC50 [3, 14]: > 250 nM
IC50 [4, 15]: > 250 nM

CS(=O)(=O)c1ccc(Nc2cc3c(C#Cc4cnn(C5CC5)c4)nccc3cn2)cc1 [Ex 635, 5-((1-cyclopropyl-1H-pyrazol-4-yl)ethynyl)-N-(4-(methylsulfonyl)phenyl)-2,6-naphthyridin-3-amine]
IC50 [1, 20]: 25 to 250 nM
IC50 [2, 13]: > 250 nM
IC50 [3, 14]: > 250 nM
IC50 [4, 15]: > 250 nM
